Assay results: patent US20040082503A1, “Methods for treatment of diabetes using peptide analogues of insulin” (Neurocrine Biosciences, Inc., priority 1998, published 2004)
“And” between values parts separate entries of the source, which are not always exact repeats. Equal entries are not always repeated.

How the values were obtained:
[1] = system: Insulin B chain (9-23) specific murine T cell clone PD12-4.9; experiment: Proliferation of insulin B chain (9-23) specific murine T cell clone PD12-4.9; assay type: cell-based, mouse (NOD); conditions: clone PD12-4.9, 50 μM peptide, Exp. 1 and 2; for S.I. (Stimulation Index): cpm with peptide/cpm in medium alone
Protocol: Insulin specific NOD T cell lines were established by culturing lymphocytes isolated from islet-infiltrating populations by in vitro stimulation with either porcine insulin at 25 μg/ml and irradiated NOD islet cell in the presence of irradiated NOD spleen cells as antigen presenting cells and cytokines. To obtain the infiltrating lymphocytes the following procedures were performed (see Wegmann et al., Eur. J. Immunol. 24:1853, 1994): the pancreas from the NOD mouse was digested with collagenase and individual islets were isolated manually. The infiltrating lymphocytes were then obtained by mild trypsin digestion of the islets. The insulin specific T cell lines or clones were propagated by serial stimulation in the presence of NOD spleen cells, porcine insulin and lymphokines. Clones were obtained by limiting dilution of the B chain (9-23) specific T cell lines in the presence of the antigen presenting cells and porcine insulin at 25 μg/ml. Wells with a growing population of cells following limiting dilution were expanded in appropriate medium, and after one cycle of growth were tested for reactivity to the B chain (9-23) peptide of insulin by evaluating the proliferative response.
Insulin B chain (9-23) (SEQ ID NO:2) specific mouse (NOD) T cell clones were isolated from infiltrated islets as described in Example 2. Peptide analogues with single alanine substitutions were prepared as described in Example 1. The effect of each analogue on T cell proliferation was then evaluated using an assay performed in 96-well flat bottom microtiter plates (see Daniel et al., Eur. J. Immunol. 25:1056, 1995). Briefly 25,000 T cell clones along with 1 million irradiated NOD spleen cells were cultured in the presence of 50 μg/ml of insulin B chain 9-23 peptide or any of the alanine substituted peptides listed below in triplicate sets. The plates were incubated for a total of 72 hours in 7% carbon dioxide atmosphere with a pulse of 1 μCi/well of tritiated thymidine for the last 6-8 hours of culture. Cells were harvested on a glass fiber filter and the associated radioactivity was counted in a liquid scintillation counter. Results are expressed as mean counts per minute of triplicate wells.
NOD T cell clones were incubated in the presence of 50 μM of either the native B chain (9-23) peptide or NBI-6024. The data in Table 3 represent the mean of triplicate sample±standard error of the mean. Within Table 3, S.I. (Stimulation Index)=proliferation (cpm) in the presence of the peptide/proliferation (cpm) in medium alone.

[2] = system: insulin B chain (9-23) responsive T cell lines from diabetic patients; experiment: Proliferation of T cell lines from diabetic patients; assay type: cell-based, human; conditions: for Stimulation Index: 50 μM peptide
Protocol: FIGS. 4-6 are histograms illustrating the proliferative response (measured in cpm) of T cell lines from different diabetic patients to the native B chain (9-23) peptide or to representative peptide analogues. Peripheral blood mononuclear cells were isolated from diabetic patients and cultured in the presence of insulin B chain (9-23) peptide. After three rounds of restimulation with insulin B chain (9-23), 1×10^5 T-cells and 7×10^4 irradiated autologous PBMCs were added to each well in a round bottom 96-well plate in complete medium. Cells were cultured for 5 days with NBI-6024 (insulin B chain 9-23 with alanine substitutions at positions 16 and 19), insulin B chain (9-23) or medium only. On day 4, the cells were pulsed with ^3H-thymidine and re-cultured for an additional 18 hours. The cultures were then harvested, counted using liquid scintillation, and the data was expressed as the mean counts per minute (cpm) of replicate samples±standard error of the mean (sem).
FIG. 7 is a histogram illustrating the proliferative response (measured in cpm) of a T cell line from a diabetic patient to the native B chain (9-23) peptide or to representative peptide analogues containing alanine substitutions as indicated. Peripheral blood mononuclear cells were isolated from diabetic patients and cultured in the presence of insulin B chain (9-23) peptide. After three rounds of restimulation with insulin B chain (9-23), 1×10^5 T-cells and 7×10^4 irradiated autologous PBMCs were added to each well in a round bottom 96-well plate in complete medium. Cells were cultured for 5 days with analogue, insulin B chain (9-23) or medium only (BKG), as indicated. On day 4, the cells were pulsed with ^3H-thymidine and re-cultured for an additional 18 hours. The cultures were then harvested, counted using liquid scintillation, and the data was expressed as the mean counts per minute (cpm) of replicate samples±standard error of the mean (sem).
Peptide analogues of B chain (9-23) containing alanine substitutions at residues 13, 15, 16 or 17 or the doubly substituted alanine analog A^16, 19 (NBI-6024) were prepared as described in Example 1. T cell lines from diabetic patients were prepared by isolating lymphocytes from the blood of the patient by subjecting the blood to a density gradient separation. Isolated lymphocytes were then cultured in the presence of the insulin B chain (9-23) peptide (10 μM) and recombinant human IL-2 in the presence of 5-10% of autologous serum and irradiated autologous peripheral blood lymphocytes in culture medium. Four to five days later cells were harvested and the cycle repeated for 2 or 3 times.
Proliferation of the T cell line, in response to the native B chain (9-23) peptide (SEQ ID NO:2) or to the peptide analogs, was measured by culturing 25,000 to 100,000 T cells in the presence of 50,000-200,000 irradiated autologous PBLs and different concentrations of the insulin B chain (9-23) peptide or a peptide analogue in triplicate cultures. Following 4-5 days of culture, including the last 18 hours with radioactive thymidine, cells were harvested and the associated radioactivity was counted in a liquid scintillation counter. Results are expressed as mean counts per minute for each of the peptide analogues tested.

[3] = system: Murine NOD T cell clone PD12-2.35 response to insulin B chain (9-23) peptide; experiment: Antagonism of T cell proliferation assay, clone PD12-2.35; assay type: cell-based, mouse (NOD); conditions: for % Inhibition: N/A = no inhibition observed
Protocol: Peptide analogues of B chain (9-23) containing alanine substitutions at residue 12, 13, 15 or 16 or the doubly substituted peptide at positions 16 and 19 (A^16,19; NBI-6024) were prepared as described in Example 1. T cell antagonism was detected by evaluating the ability of the peptide analogues to inhibit T cell proliferation induced by native B chain (9-23) (SEQ ID NO:2). In this assay, antigen presenting cells were first irradiated and then incubated with the competing peptide analogue and the native B chain (9-23) peptide. T cells were then added to the culture. Various concentrations of candidate peptide analogues were included in cultures which were incubated for a total of 4 days. Following this incubation period, each culture was pulsed with 1 μCi of [^3H]-thymidine for an additional 12-18 hours. Cultures were then harvested on fiberglass filters and counted as above. Mean CPM and standard error of the mean were calculated from data determined in triplicate cultures.
Within Table 4, the control peptide, NBI-5096, is an unrelated peptide from myelin basic protein. The percent inhibition was calculated as: (1−experimental cpm/insulin peptide cpm)×100%.

[4] = patient number 1 (ID 100) PBLs, CPM with antigen/CPM with medium alone
[5] = patient number 8 (ID 1100) PBLs
[6] = B(9-23) 5 μM + 10 μM competing peptide
[7] = B(9-23) 5 μM + 50 μM competing peptide
[8] = listed as Insulin B Chain (9-23)

## NBI-6024: insulin B chain 9-23 with alanine substitutions at positions 16 and 19 (SHLVEALALVAGERG)
[1]
  Proliferative response, Mean cpm ± sem: 12,313 ± 1,372 cpm and 6,171 ± 725 cpm
  S.I. (Stimulation Index): 1.35 and 0.85
[2]; FIGS. 4-7, Table 5
  Stimulation of diabetic patients' T cell lines and clones responsive to native insulin B chain (9-23): do not respond
[2]; [4]
  Stimulation Index: 0.9
[2]; patient number 2 (ID 200) PBLs
  Stimulation Index: 1.2
[2]; patient number 3 (ID 400) PBLs
  Stimulation Index: 1.0
[2]; patient number 4 (ID 500) PBLs
  Stimulation Index: 0.9
[2]; patient number 5 (ID 600) PBLs
  Stimulation Index: 1.6
[2]; patient number 6 (ID 700) PBLs
  Stimulation Index: 1.5
[2]; patient number 7 (ID 900) PBLs
  Stimulation Index: 0.9
[2]; [5]
  Stimulation Index: 0.8
[3]; [6]
  CPM ± SEM: 4,441 ± 626 CPM
  % Inhibition: 43.0%
[3]; [7]
  CPM ± SEM: 1,389 ± 218 CPM
  % Inhibition: 82.0%

## Native 9-23: native peptide, residues 9-23 of human insulin B chain (SEQ ID NO:2) (SHLVEALYLVCGERG; Residues 9-23 of human insulin B chain; listed as Homo sapiens) [reference compound]
[1]; [8]
  Proliferative response, Mean cpm ± sem: 45,541 ± 5,222 cpm and 65,624 ± 4,979 cpm
  S.I. (Stimulation Index): 4.99 and 9.1
[2]; [4]
  Stimulation Index: 9.9
[2]; patient number 2 (ID 200) PBLs
  Stimulation Index: 5.3
[2]; patient number 3 (ID 400) PBLs
  Stimulation Index: 7.8
[2]; patient number 4 (ID 500) PBLs
  Stimulation Index: 2.1
[2]; patient number 5 (ID 600) PBLs
  Stimulation Index: 5.8
[2]; patient number 6 (ID 700) PBLs
  Stimulation Index: 3.2
[2]; patient number 7 (ID 900) PBLs
  Stimulation Index: 2.6
[2]; [5]
  Stimulation Index: 3.7
[3]; B(9-23) 5 μM alone, medium only 213 ± 17
  CPM ± SEM: 7,840 ± 528 CPM
